Test results published in article PMC6508677, “Identification of druggable small molecule antagonists of the Plasmodium falciparum hexose transporter PfHT and assessment of ligand access to the glucose permeation pathway via FLAG-mediated protein engineering” (PLoS ONE, 2019).
Where “and” joins values, the source holds several entries; their conditions need not be identical. Equal entries are not always repeated. Where two headings read alike, the source gives them in different places.

Biological target: T1, hGLUT8 (Homo sapiens, UniProt Q9NY64, E7R/E8R)
T1 construct: expressed in transfected cells; host or cells: HEK293 (HEK293-FLIP, native hGLUT1 knocked down)
T1 sequence (Q9NY64 1-477 E7R/E8R): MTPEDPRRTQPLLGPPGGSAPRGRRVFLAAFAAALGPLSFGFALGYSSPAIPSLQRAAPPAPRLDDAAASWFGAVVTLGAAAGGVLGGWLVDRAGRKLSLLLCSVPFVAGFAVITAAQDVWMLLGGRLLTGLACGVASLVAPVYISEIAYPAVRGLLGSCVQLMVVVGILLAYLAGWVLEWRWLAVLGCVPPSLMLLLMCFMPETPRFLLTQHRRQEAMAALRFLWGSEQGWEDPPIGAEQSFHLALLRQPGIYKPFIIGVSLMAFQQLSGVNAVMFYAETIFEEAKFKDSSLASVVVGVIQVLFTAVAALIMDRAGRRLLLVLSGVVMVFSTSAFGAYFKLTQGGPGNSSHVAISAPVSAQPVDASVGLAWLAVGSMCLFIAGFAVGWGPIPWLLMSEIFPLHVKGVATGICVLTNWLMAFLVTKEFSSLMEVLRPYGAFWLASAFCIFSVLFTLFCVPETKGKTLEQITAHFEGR
Assay: 2-DG uptake by HEK293 cells overexpressing hGLUT8
Format: cell-based
Description: Generation of HEK293 cells overexpressing PfHT and human GLUTs 1–4 were described elsewhere. Briefly, HEK293 cells were transfected with pcDNA3.1 FLII12Pglu-7006 (Addgene), containing the fluorescence resonance energy transfer (FRET) glucose sensor (HEK293-FLIP) and PfHT, human GLUT1 (hGLUT1), hGLUT2, hGLUT3, hGLUT4, hGLUT5 or hGLUT8 using Optifect (Life Technologies) according to manufacturer’s specifications. To increase retention of GLUT8 at the plasma membrane, the dileucine sorting signal E^7E^8XXXLL was modified to R^7R^8XXXLL as described in [17]. Stable transfectants were selected for G418 and hygromycin resistance to select for FRET sensor and hexose transporter, respectively. HEK293-FLIP cells were also used to generate cells stably transfected with FLAG-tagged PfHT (FTPfHT). FLAG tag ([…]) followed by a triple glycine linker and a tobacco etch virus (TEV) protease site (ENLYFQS) followed by a triple glycine linker was added to the N-terminus of PfHT via PCR [18] using Phusion Hot Start II High-Fidelity DNA Polymerase (Fisher Scientific). Single clones were selected by comparing their abilities to transport glucose as assayed via FRET and radiolabeled hexose uptake. In all cell lines, except for HEK293 cells overexpressing hGLUT1 and hGLUT5, native hGLUT1 was knocked down using shRNA as described elsewhere. Transcript levels of the individual GLUTs expressed in each cell line are as described in [13, 15] and in S1 Fig.
Glucose uptake by P. falciparum was performed essentially as described. P. falciparum strain 3D7 was cultured in 100 mm tissue culture dishes (Techno Plastic Products) in a 2% suspension of human erythrocytes and RPMI 1640 medium until reaching > 7.5% parasitemia. Cells were pelleted via centrifugation and resuspended in RPMI 1640 medium. To determine the uptake of radiolabeled glucose into the parasite, parasites were isolated from infected erythrocytes by permeablization with saponin (0.05 w/v), followed by centrifugation, aspiration of supernatant and washing of the pellet 3X with saline solution (135 mM NaCl, 2 mM KCl, 25 mM HEPES, 0.2 mM glucose and 1 mM MgCl2; pH 7.1) to remove cellular debris. WU-1 or DMSO vehicle were added to 100 μl parasites (resuspended in saline) 5 min prior to the addition of 100 μl [^14C]2-DOG (0.2- μCi/ml final concentration). 2-DG uptake was stopped after 2 min by layering the entire reaction over 300 μl of an oil mixture (5:4 mix of dibutyl phthalate / dinonyl phthalate) in Eppendorf tubes and centrifuged at 15,850 × g for 2 mins. The ratio of the estimated intracellular concentration of radiolabel relative to the extracellular concentration were calculated as described. Uptake of radiolabeled hexose into HEK293 cells was measured in glucose-free HBSS as described previously. Briefly, cells were plated at 400,000 cells/well overnight at 37°C in 24-well plates pre-treated with PEI. After 30-min incubation at 37°C in glucose-free HBSS in the presence of vehicle or increasing concentrations of compound, 2-DG uptake was measured in glucose-free HBSS for 4 min at 37°C. Cultures were washed in ice-cold 1X PBS and lysed in 0.1% Triton X-100 in 1X PBS. Radiolabeled hexose uptake was determined by liquid scintillation counting (Ultima Gold, Thermo Fisher) and normalized to total protein per well. Uptake data are plotted as percent uptake relative to vehicle-treated cells. Kinetic analyses were performed using the indicated concentrations of substrate and WU-1, with quenching of uptake after 1 min incubation. Incubation times had been previously determined as being in the linear range of time-dependent radiolabeled hexose uptake (2 min for 2-DG uptake into freed parasites; 2 and 4 min for D-Frc and 2-DG uptake HEK cell lines, respectively). Data were fit by least squares nonlinear regression analysis using GraphPad Prism 6.0 software.

## Cc1ccc(S(=O)(=O)CCNC(=O)c2c(-c3c(Cl)cccc3Cl)noc2C)cc1 [WU-1, 3-(2,6-dichlorophenyl)-5-methyl-N-[2-(4-methylbenzenesulfonyl)ethyl]-1,2-oxazole-4-carboxamide]
GLUT8, 2-DG Uptake, average of Expt 1-3, read-out: AVE IC50
  IC50: 25 µM
GLUT8, 2-DG Uptake, single experiments Expt 1-3, read-out: IC50
  IC50: 39.8 µM and 19.9 µM and 15.3 µM
GLUT8 cell line, read-out: IC50, 2-DG uptake
  IC50: 25 ± 7.5 µM
HEK293, 4 min, GLUT8, concentration 0.001 µM, Expt 1-3, read-out: 2-DG Uptake AVE
  remaining activity at 0.001 µM: 100%
HEK293, 4 min, GLUT8, concentration 0.3125 µM, read-out: 2-DG Uptake AVE
  remaining activity at 0.3125 µM: 104%
HEK293, 4 min, GLUT8, concentration 0.6250 µM, read-out: 2-DG Uptake AVE
  remaining activity at 0.625 µM: 95.3%
HEK293, 4 min, GLUT8, concentration 1.250 µM, read-out: 2-DG Uptake AVE
  remaining activity at 1.25 µM: 98.6%
HEK293, 4 min, GLUT8, concentration 2.500 µM, read-out: 2-DG Uptake AVE
  remaining activity at 2.5 µM: 97.5%
HEK293, 4 min, GLUT8, concentration 5.0 µM, read-out: 2-DG Uptake AVE
  remaining activity at 5 µM: 88%
HEK293, 4 min, GLUT8, concentration 20 µM, read-out: 2-DG Uptake AVE
  remaining activity at 20 µM: 60.6%
HEK293, 4 min, GLUT8, concentration 80 µM, read-out: 2-DG Uptake AVE
  remaining activity at 80 µM: 41.2%
HEK293, 4 min, GLUT8, concentration 160 µM, read-out: 2-DG Uptake AVE
  remaining activity at 160 µM: 25.7%
HEK293, 4 min, GLUT8, concentration 225 µM, read-out: 2-DG Uptake AVE
  remaining activity at 225 µM: 23.9%
Calculated from IC50s
  Selectivity Index (PfHT over GLUT8), 2-DG: 4.3
